{"source": "patent US20150306232A1", "about": "“HYDROGELATORS COMPRISING D-AMINO ACIDS” (BRANDEIS UNIVERSITY, priority 2012, published 2015)", "key": {"[1]": {"system": "ALP", "experiment": "enzymatic dephosphorylation followed by 31P NMR", "format": "biochemical", "conditions": "1.0 wt %, 0.02 U/mL ALP, pH 7.6, 25° C.", "description": "To evaluate the rate of enzymatic hydrogelation process, we used ^31P NMR and rheology to study the transformation of the precursors 11a and 11b upon the treatment of ALP (FIG. 26). We first dissolved 10 mg of 11a and 11b into 1.0 mL of water at pH 7.6, respectively, to afford clear solutions with concentrations of 1.0 wt %. Once adding 0.02 U/mL of alkaline phosphates, we immediately monitored the solutions of 11a and 11b by ^31P NMR and oscillatory rheology at 25° C. The ^31P NMR spectra at 3 min, 1 h, 2 h, 4 h, 6 h, 8 h, 10 h, 12 h, 14 h, 18 h, 24 h, and 48 h indicate that the phosphate groups on the L-tyrosine of 11a and D-tyrosine 11b (δ=−2.7) become free phosphates (δ=0.0) at almost same rate, and dephosphorylation finishes after 48 hours. […] FIGS. 26C and 26D display the time dependent rheology studies of 11a and 11b. At the beginning, values of G″ are higher than the values of G′ for the solutions of 11a and 11b, indicating both of them are fluids. However, as 11a and 11b slowly turn into hydrogelators 12a and 12b by enzymatic dephosphorylation, the solutions start to form solid-like hydrogels with values of G′ become higher than those of G″. The gelation points for 12a and 12b, at where G′s intersect with G″s, are both achieved around 5 hours after the addition of enzyme. […]"}, "[2]": {"system": "HeLa cells", "experiment": "cells", "format": "cell-based", "conditions": "Homo sapiens, HeLa; 72 hours at 37° C., MTT; read-out: IC50, HeLa cell viability", "description": "We seeded […] (cells/well) of health HeLa cells into 96-well plate with 100 μL of MEM medium supplemented with 10% fetal bovine serum (FBS), 100 U/mL penicillin and 100 mg mL21 streptomycin. The incubation at 37° C. and 5% CO2 for 12 hours allowed HeLa cells to attach the bottom of 96-well plate. Then we replaced the medium by another 100 μL of growth medium that contained serial diluents of our compounds (0.5% DMSO) and then incubated the cells at 37° C. and 5% CO2 for additional 72 hours. During the measurement of proliferation for HeLa cells, which were assayed into three days, we added 10 μL of (3-(4,5-Dimethylthiazol-2-yl)-2,5-diphenyltetrazolium bromide (MTT, 0.5 mg/mL) into the assigned wells in their corresponding day every 24 hours, which was followed by adding 100 μL of 0.1% sodium dodecyl sulfate (SDS) 4 hours later. Then we collected the assay results after another 24 hours incubation. Since the mitochondrial reductase in living cells reduced MTT to purple fomazan, the absorbance at 595 nm of the whole solution was finally measured by DTX 880 Multimode Detector. With MEM medium as blank and untreated HeLa cells as control, we measure each concentration of these compounds in triplicate. The IC50 values of our hydrogelators were read from their activity curves (with the measurement of 8 different concentrations) in day 3."}, "[3]": {"system": "4T1-luciferase cells", "experiment": "in vivo evaluation of antitumor activity", "set-up": "species or system Balb/c mice", "conditions": "intravenous 4×10 mg/kg every other day from day 0", "description": "After inoculating female Balb/c mice with 2×10^5 of 4T1-luciferase cells in the mammary fat pad, we allow tumors grow until their sizes reach about 500 mm^3, and randomly divide them into different treatment groups: (1) intravenous injections of PBS vehicle control; (2) intravenous injection of 4×10 mg/kg Taxol® every other day from day 0 for indicated times; (3) a single intratumoral injection of 10 mg/kg Taxol containing hydrogels in 40 μL volume. With the treatments of 16 (Taxol; paclitaxel), 20a, 20b, or PBS buffer (control) for 14 days, we monitor the relative tumor sizes (calculated by the formula: tumor volume=length×width×(Length+Width)/2) and relative weights of mice every two days. […] Therefore, we have to divide 40 mg/kg of 16 into four injections with each injection of 10 mg/kg. […] This promising result warrants further investigation of the D-peptidic hydrogels of Taxol on animal models.\nFemale Balb/c mice were incubated with 2×10^5 4 T1-luciferase cells in the mammary fat pad. Tumor growth was monitored every other day and the tumor volume was calculated by the formula: length×width×(Length+Width)/2. Once tumors size reached around 500 mm^3, we randomly divided mice into different treatment groups. […] Mice weight was monitored after receiving treatment and presented as relative weight (%)."}, "[4]": {"experiment": "toxicity and relative weight of treated mice", "format": "in vivo, Balb/c mice", "conditions": "single injection of 40 mg/kg, formulated with Cremophor EL, 40 mg/kg"}, "[5]": {"biological_target": "COX-2 (Homo sapiens, UniProt P35354)", "conditions": "read-out: reported IC50 of naproxen to COX-2; literature; cited from earlier work"}, "[6]": {"experiment": "enzymatic hydrogelation with ALP", "format": "physicochemical", "conditions": "1.0 U/mL ALP, pH 7.6, 0.4-1.0 wt %", "description": "To investigate the enzymatic hydrogelation of the D-peptidic precursor 11b, we prepared a series of hydrogels formed by using ALP to treat 11b at different concentrations. After dissolving 1.0, 2.0, 3.0, 4.0, and 5.0 mg of 11b in 0.5 mL of water (pH 7.6), respectively, we obtained clear solutions of 11b with different concentrations. The treatment of the solutions of 11b with ALP (1.0 U/mL) afforded the molecules of hydrogelator 12b, which are less soluble than 11b and thus self-assemble in water to form hydrogels when the concentrations of 12b are sufficient.\nAll the compounds were dissolved in de-ionized water. We then adjusted pH of the solutions carefully adding 1 M of NaOH and 1 M of HCl and measured the values by pH paper (pH 6.0-8.0). After prepared clear weakly basic solutions (pH 7.6 or 7.4), we then formed the hydrogels by adding enzymes (alkaline phosphatase)."}, "[7]": {"biological_target": "T1, COX-1 (ovine) enzyme (Ovis aries, UniProt P05979)", "T1 construct": "purchased Cayman Chemical 700100", "T1 sequence (P05979 25-600)": "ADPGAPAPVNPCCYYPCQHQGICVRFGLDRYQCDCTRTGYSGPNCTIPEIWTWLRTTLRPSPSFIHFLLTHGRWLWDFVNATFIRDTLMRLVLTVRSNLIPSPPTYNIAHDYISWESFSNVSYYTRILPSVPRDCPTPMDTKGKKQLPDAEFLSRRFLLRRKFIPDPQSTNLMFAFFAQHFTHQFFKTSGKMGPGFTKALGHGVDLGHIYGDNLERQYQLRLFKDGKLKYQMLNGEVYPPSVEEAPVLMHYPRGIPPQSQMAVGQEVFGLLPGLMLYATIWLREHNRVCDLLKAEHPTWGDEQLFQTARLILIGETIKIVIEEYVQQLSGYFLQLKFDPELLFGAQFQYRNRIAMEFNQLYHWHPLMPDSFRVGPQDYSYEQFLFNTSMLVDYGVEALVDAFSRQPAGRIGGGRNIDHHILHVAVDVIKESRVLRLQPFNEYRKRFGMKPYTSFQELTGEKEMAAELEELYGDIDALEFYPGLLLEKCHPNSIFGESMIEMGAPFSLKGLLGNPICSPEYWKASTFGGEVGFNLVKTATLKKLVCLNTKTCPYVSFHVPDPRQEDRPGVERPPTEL", "experiment": "COX Fluorescent Inhibitor Screening Assay, COX-1", "format": "biochemical", "conditions": "read-out: IC50 for inhibiting COX-1 enzyme", "description": "(§1) To study the drug efficacies of NSAID containing hydrogelators, here we used ‘COX Fluorescent Inhibitor Screening Assay Kit’ (700100; Cayman Chemical) to do in vitro inhibition assays for Npx and Npx containing hydrogelors 1, 2, 3, 4, 5, and 6. Each compound was tested by COX-1 (ovine) enzyme and COX-2 (human recombinant) enzyme separately in 96 well black assay plates. By utilizing the peroxidase component of COXs, we monitored the reaction between PGG2 and ADHP (10-acetyl-3,7-dihydroxyphenoxazine), which produced highly fluorescent compound resorufin. This resorufin can be easily analyzed by multimode detector with an excitation wavelength of 530-540 nm and an emission wavelength of 585-595 nm. All the compounds are assayed in triplicate. After the combination of 10 μl of inhibitors, 10 μl of Heme solution, 10 μL of fluorometric substrate, 10 μl of enzyme (either COX-1 or COX-2), and 150 μl of assay buffer, we quickly add 10 μl of arachidonic acid solution to initiate the reaction. Then we read the plate exactly after two minutes incubation at room temperature. In this experiment, we also measure the blank data without enzyme and inhibitors, and the control data without inhibitors. The IC50 values of these hydrogelators were read from their activity curves (FIG. 18), which were measured with 5 different concentrations of these hydrogelators (dissolved in DMSO)."}, "[8]": {"biological_target": "T2, COX-2 (human recombinant) enzyme (Homo sapiens, UniProt P35354)", "T2 construct": "purchased Cayman Chemical 700100", "T2 sequence (P35354 18-604)": "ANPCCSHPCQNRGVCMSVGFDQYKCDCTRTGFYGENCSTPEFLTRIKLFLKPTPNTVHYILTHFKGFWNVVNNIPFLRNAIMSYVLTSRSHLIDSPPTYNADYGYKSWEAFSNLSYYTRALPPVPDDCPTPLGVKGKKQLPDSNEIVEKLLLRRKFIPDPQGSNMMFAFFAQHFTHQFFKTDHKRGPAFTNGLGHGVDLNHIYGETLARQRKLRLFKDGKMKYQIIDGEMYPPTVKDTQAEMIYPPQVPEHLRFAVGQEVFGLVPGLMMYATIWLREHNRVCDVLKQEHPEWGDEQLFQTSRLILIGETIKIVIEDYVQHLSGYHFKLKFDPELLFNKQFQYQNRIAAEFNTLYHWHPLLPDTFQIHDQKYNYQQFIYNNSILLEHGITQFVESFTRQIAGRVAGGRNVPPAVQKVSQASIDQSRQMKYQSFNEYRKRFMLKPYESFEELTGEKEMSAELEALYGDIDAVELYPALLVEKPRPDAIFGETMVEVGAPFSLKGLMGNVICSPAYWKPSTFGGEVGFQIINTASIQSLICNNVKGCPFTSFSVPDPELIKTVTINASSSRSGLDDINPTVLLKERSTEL", "experiment": "COX Fluorescent Inhibitor Screening Assay, COX-2", "format": "biochemical", "description": "as §1"}, "[9]": {"system": "HeLa cells", "experiment": "live cell imaging of intracellular self-assembly", "format": "cell-based", "conditions": "500 μM", "description": "We seeded 2×10^5 of HeLa cells in Glass Chamber (Thermo Scientific Nunc Lab-Tek, 2-well) with MEM medium (2 mL) that was supplemented with 10% FBS, 100 U/mL penicillin and 100 mg mL 21 streptomycin for 4 h to allow the cell attachment. In order to perform the PTP1B Inhibition assay, we then replaced the culture medium in both wells and re-incubated the cells for 1 h, for which one-half of the wells was incubated in the medium containing 25 μM CinnGEL 2Me (novel inhibitor of PTP1B, prepared by reconstitution in DMSO), other well as a control was in the culture medium plus the same volume of DMSO. Ishino, Y.; et al. Mol. Vis. 2008, 14, 61. After that, we replaced the medium and washed the HeLa cells with PBS buffer for three times. Then we fixed the cell containing glass chamber on the confocal microscope stage, and replaced the PBS buffer with 1 mL solution of our fluorescent hydrogelators (500 μM, dissolved in PBS buffer) for each well. The sample we added into the PTP1B inhibition well also contained 25 μM of CinnGEL 2Me. Thereafter fluorescent images were captured immediately in the xyt mode with a delay of 11.64 s between frames."}}, "note": "Residues, ends and D or L forms follow the SMILES beside them. *: point of attachment. Naproxen = COc1ccc2cc([C@H](C)C(=O)*)ccc2c1", "data": [{"compound": "2-(Naphthalen-2-yl)acetyl-(L)-Phe-(L)-Phe-(L)-Lys-(L)-Tyr phosphate [11a, reference compound]", "values": [{"measurement": "time at which dephosphorylation finishes", "setting": "[1]", "value": 48, "unit": "h"}]}, {"compound": "CC(=O)O[C@H]1C(=O)[C@@]2(C)[C@H]([C@H](OC(=O)c3ccccc3)[C@]3(O)C[C@H](OC(=O)[C@H](O)[C@@H](NC(=O)c4ccccc4)c4ccccc4)C(C)=C1C3(C)C)[C@]1(OC(C)=O)CO[C@@H]1C[C@@H]2O", "note": "[compound 16, paclitaxel]", "values": [{"measurement": "IC50", "setting": "[2]", "value": 0.0458, "unit": "µM"}, {"measurement": "relative tumor size vs control", "setting": "[3]", "value": "smaller than those of the control group after day 8"}, {"measurement": "lethality", "setting": "[4]; listed as Taxol", "value": "Mice died immediately"}, {"measurement": "lethality", "setting": "[4]; listed as Taxol®", "value": "may cause the death of mouse immediately"}]}, {"compound": "COc1ccc2cc([C@H](C)C(=O)O)ccc2c1", "note": "[naproxen]", "values": [{"measurement": "IC50", "setting": "[5]", "value": "2 to 28.4", "unit": "µM"}]}, {"compound": "2-(Naphthalen-2-yl)acetyl-(D)-Phe-(D)-Phe-(D)-Lys-(D)-Tyr phosphate [11b]", "values": [{"measurement": "time at which dephosphorylation finishes", "setting": "[1]", "value": 48, "unit": "h"}, {"measurement": "time to form hydrogel after addition of ALP", "setting": "[6]", "value": "≤ 24", "unit": "h"}]}, {"compound": "COc1ccc2cc([C@H](C)C(=O)N[C@@H](Cc3ccccc3)C(=O)N[C@@H](Cc3ccccc3)C(=O)N[C@@H](CCCCN)C(=O)N[C@@H](Cc3ccc(O)cc3)C(=O)O)ccc2c1", "note": "[L-4, Naproxen-L-Phe-L-Phe-L-Lys-L-Tyr, reference compound] (Naproxen-FFKY-OH)", "values": [{"measurement": "IC50", "setting": "[7]", "value": 115, "unit": "µM"}, {"measurement": "selectivity S for COX-2 (IC50 of COX-1/IC50 of COX-2)", "setting": "[8]", "value": "about 3"}]}, {"compound": "2-(Naphthalen-2-yl)acetyl-(D)-Phe-(D)-Phe-(D)-Lys(NBD)-(D)-Tyr phosphate [14b]", "values": [{"measurement": "time until fluorescence emerges", "setting": "[9]; with 25 μM CinnGEL 2Me (PTP1B inhibitor)", "value": 5, "unit": "min"}, {"measurement": "time until cells exhibit strong fluorescence", "setting": "[9]; without PTP1B inhibitor", "value": 2, "unit": "min"}]}]}
